The values that follow come from patent US20150322083A1, “(THIENO[2,3-b][1,5]BENZOXAZEPIN-4-YL)PIPERAZIN-1-YL COMPOUNDS AS SELECTIVE 5-HT2A INVERSE AGONISTS” (Eli Lilly and Company, priority 2014, published 2015).

The target in one data set is Adrenergic alpha2A (Homo sapiens, UniProt P08913). Kind of data set: Adrenergic alpha2A binding. Here is the method: (§1) Curves are evaluated using a 4-parameter logistic nonlinear equation to obtain the concentration of competitor causing 50% inhibition of radioligand binding (IC50). Equilibrium dissociation constants (Ki) are calculated according to the equation Ki=IC50/(1+L/Kd), where L equals the concentration of radioligand used in the experiment and Kd equals the equilibrium dissociation constant of the radioligand for the receptor, determined from standard saturation analysis or homologous competition experiments. Reported values for Ki, where n values are indicated, are shown as geometric mean±the standard error of the mean (SEM), with the number of replicate determinations indicated by n. Geometric means are calculated by the equation GeoMean=10̂(Average(log Ki 1+log Ki 2+ . . . log Ki n)/[…]).
(§2) Further, the compounds of the invention may be tested in binding assays and functional activity assays by well known methods for other physiologically important receptors such as, but not limited to, the hERG channel, other serotonin receptors (specifically 5-HT1B receptors, lack of agonist activity at 5-HT2B receptors, 5-HT2C, 5-HT5, 5-HT6, and 5-HT7 receptors), dopaminergic receptors (specifically D1, D2, and D3), H1 receptors, GABAA receptors, adrenergic receptors and monoamine transporters.

The next data set deals with Dopamine D3 (Homo sapiens, UniProt P35462). Kind of data set: Dopamine D3 binding. As to the method:
as §1, §2

The target in data set [1] is recombinant human 5-HT2A receptor (Homo sapiens, UniProt P28223). In words: 5-HT2A competition binding assay ([3H]-Ketanserin, SPA). More on the design: expressed in transfected cells. Here is the method: [^3H]-Ketanserin binding experiments are carried out in SPA 96-well format. Membranes used in this assay are prepared from AV-12 cells stably expressing recombinant 5-HT2A receptors (human). The incubation is initiated by the addition of a mixture of WGA YSi SPA beads (1 mg/well, Perkin Elmer (MA, USA), Product No. RPNQ0011) and 2 μg membranes to assay buffer (67 mM Tris, 0.5 mM EDTA; pH 7.6) containing 3.1 nM [^3H]-Ketanserin and varying concentrations of the test compound (10 point concentration response curves). Non-specific binding is determined in the presence of 20 μM 1-(1-naphthyl)piperazine. Samples are incubated for 4 hr. at room temperature (22° C.) and then read in a microplate scintillation counter.
recombinant human 5-HT2A receptor, sequence (P28223 whole entry): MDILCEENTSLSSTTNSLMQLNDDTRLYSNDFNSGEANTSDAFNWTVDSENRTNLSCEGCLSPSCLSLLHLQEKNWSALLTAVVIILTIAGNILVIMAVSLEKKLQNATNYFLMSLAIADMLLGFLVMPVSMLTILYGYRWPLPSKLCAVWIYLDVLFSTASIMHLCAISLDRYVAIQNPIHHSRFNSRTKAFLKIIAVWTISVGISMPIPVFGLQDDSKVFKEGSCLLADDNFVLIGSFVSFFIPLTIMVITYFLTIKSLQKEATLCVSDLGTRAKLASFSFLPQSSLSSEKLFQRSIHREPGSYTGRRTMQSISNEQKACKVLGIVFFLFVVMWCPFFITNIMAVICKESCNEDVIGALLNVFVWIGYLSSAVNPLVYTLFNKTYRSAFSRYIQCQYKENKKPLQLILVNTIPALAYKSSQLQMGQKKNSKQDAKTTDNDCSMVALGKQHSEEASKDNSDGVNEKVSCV
Curves are evaluated using a 4-parameter logistic nonlinear equation to obtain the concentration of competitor causing 50% inhibition of radioligand binding (IC50). Equilibrium dissociation constants (Ki) are calculated according to the equation Ki=IC50/(1+L/Kd), where L equals the concentration of radioligand used in the experiment and Kd equals the equilibrium dissociation constant of the radioligand for the receptor, determined from standard saturation analysis or homologous competition experiments. […]

In a further data set the target is 5-HT1B receptors (Homo sapiens, UniProt P28222). Kind of data set: 5-HT1B binding. Here is the method:
as §1, §2

The target of another data set is Dopamine Transporter (Homo sapiens, UniProt Q01959). Kind of data set: Dopamine transporter binding. As to the method: as §1, §2
Dopamine Transporter, sequence (Q01959 whole entry): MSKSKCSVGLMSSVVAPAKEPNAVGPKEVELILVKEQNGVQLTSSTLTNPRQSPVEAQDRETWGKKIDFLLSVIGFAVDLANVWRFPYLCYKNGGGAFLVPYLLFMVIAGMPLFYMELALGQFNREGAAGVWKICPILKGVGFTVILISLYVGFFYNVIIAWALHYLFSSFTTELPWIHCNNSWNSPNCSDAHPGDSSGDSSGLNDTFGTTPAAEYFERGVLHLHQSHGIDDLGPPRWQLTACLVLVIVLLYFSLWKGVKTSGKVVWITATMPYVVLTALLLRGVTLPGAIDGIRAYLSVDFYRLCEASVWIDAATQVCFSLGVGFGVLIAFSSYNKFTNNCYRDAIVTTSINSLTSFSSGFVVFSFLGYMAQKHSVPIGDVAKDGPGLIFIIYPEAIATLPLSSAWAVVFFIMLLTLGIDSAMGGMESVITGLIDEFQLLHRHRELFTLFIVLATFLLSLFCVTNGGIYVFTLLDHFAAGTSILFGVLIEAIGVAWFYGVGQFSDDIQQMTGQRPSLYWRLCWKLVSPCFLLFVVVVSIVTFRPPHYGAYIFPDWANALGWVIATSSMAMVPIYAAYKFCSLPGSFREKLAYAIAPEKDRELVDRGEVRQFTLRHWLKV
The next data set concerns the target 5-HT5 (Homo sapiens, UniProt P47898). Kind of data set: 5-HT5 binding. As to the method: as §1, §2
The target of another data set is 5-HT7 receptors (Homo sapiens, UniProt P34969). In words: 5-HT7 binding. As to the method:
as §1, §2

Another data set has as its target hERG channel (Homo sapiens, UniProt Q12809). In words: hERG channel assay (selectivity data).
Source text: as §2

The target in data set [2] is T1, recombinant rat 5-HT2A receptor (Rattus norvegicus, UniProt P14842).
T1 construct: expressed in transfected cells; host or cells: AV12 cells, membranes
T1 sequence (P14842 whole entry): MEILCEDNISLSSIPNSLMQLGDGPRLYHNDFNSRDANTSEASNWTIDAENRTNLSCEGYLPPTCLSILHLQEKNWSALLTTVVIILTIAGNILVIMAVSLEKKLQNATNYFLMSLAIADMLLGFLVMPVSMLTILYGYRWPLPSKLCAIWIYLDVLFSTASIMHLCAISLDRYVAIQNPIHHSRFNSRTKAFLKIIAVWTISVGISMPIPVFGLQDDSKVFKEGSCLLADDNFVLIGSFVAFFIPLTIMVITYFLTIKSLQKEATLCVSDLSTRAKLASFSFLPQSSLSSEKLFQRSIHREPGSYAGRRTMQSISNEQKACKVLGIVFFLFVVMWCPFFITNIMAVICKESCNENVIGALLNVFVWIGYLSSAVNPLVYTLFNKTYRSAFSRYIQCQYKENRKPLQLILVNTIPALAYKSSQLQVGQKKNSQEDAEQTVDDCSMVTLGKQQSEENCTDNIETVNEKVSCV
Kind of data set: 5-HT2A inverse agonism, [35S]GTPγS binding to AV12 membranes (rat receptor). The format is biochemical. To be noted: n=2, read-out: EC50, inhibition of intrinsic activity of the 5-HT2A receptor. Here is the method:
The inverse agonist activity of compounds of the present invention may be determined by literature recognized assay methods measuring [^35S]GTPγS binding to membranes transfected with 5-HT2A receptors in an in vitro activity assay essentially as described below.
Membranes are prepared from frozen pellets of whole AV12 cells expressing the human or rat 5-HT2A receptor. Cells are thawed on ice and homogenized in homogenization buffer (50 mM Tris-HCl, 0.5 mM EDTA, 1 tablet/100 mL of complete EDTA free protease inhibitor tablets (Roche Cat. No. 05 056 489 001), pH=7.4) with 20 strokes of a teflon-glass homogenizer attached to a motorized overhead stirrer. Centrifuge membranes at 1000 rpm (aprox. 150×g) for 15 min. at 4° C. […] The final supernatant is discarded and the pellet is resuspended in homogenization buffer and its protein content is determined by the method of Bradford using BSA as the standard. […]
Test compound is prepared from a 10 mM DMSO stock solution by serial dilution to provide a 10 point concentration response curve, with a final 1% DMSO concentration when added to the assay mixture. […] This mixture is incubated for 3 hr. with constant shaking at room temperature, centrifuged at 300 rpm for 1 min. with no brake and incubated for 3 more hr. before reading in a microplate scintillation counter.

The target in a further data set is Adrenergic alpha2C (Homo sapiens, UniProt P18825). Kind of data set: Adrenergic alpha2C binding. Here is the method: as §1, §2
Adrenergic alpha2C, sequence (P18825 whole entry): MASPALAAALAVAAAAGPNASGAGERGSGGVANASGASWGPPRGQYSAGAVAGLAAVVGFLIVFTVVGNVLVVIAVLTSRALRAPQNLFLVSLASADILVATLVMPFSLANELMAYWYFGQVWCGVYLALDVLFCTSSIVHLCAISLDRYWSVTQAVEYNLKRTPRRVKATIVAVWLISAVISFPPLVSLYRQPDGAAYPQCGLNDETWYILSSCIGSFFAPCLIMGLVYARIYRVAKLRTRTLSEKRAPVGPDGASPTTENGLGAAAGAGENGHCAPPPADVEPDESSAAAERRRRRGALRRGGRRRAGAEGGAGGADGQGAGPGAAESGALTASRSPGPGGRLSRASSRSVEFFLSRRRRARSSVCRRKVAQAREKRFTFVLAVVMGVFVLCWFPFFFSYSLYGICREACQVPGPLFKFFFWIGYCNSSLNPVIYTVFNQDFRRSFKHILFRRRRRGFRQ

Dopamine D3, sequence (P35462 whole entry): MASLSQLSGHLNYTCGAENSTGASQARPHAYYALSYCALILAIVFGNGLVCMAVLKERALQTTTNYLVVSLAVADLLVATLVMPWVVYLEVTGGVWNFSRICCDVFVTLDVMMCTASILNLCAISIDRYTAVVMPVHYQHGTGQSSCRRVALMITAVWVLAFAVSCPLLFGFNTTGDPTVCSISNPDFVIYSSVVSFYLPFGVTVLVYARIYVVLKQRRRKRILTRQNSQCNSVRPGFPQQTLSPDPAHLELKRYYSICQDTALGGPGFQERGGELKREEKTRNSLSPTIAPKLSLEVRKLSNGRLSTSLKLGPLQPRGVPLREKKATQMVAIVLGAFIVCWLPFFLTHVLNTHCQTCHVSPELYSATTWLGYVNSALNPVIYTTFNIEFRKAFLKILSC
5-HT1B receptors, sequence (P28222 whole entry): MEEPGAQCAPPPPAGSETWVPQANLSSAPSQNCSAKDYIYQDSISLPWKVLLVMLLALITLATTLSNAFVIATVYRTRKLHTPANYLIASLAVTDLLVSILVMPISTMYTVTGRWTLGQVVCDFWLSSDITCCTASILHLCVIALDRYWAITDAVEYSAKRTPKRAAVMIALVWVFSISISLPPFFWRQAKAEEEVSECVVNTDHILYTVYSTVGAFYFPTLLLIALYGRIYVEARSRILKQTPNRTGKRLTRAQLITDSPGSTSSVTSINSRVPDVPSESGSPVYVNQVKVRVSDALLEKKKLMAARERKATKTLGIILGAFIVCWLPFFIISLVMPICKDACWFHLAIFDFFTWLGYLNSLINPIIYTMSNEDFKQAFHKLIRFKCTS
5-HT7 receptors, sequence (P34969 whole entry): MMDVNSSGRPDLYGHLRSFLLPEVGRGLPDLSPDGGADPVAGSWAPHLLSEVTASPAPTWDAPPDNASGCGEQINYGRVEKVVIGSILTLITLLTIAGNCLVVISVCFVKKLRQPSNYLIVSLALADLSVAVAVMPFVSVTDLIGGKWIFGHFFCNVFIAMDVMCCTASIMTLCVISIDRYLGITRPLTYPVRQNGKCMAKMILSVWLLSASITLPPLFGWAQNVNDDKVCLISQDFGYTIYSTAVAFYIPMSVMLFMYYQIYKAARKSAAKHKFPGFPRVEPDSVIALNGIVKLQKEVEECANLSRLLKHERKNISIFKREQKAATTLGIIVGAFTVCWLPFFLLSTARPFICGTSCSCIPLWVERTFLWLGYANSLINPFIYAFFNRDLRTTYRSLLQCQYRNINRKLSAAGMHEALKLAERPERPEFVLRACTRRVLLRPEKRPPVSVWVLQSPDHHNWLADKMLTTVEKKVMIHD
5-HT5, sequence (P47898 whole entry, species assumed): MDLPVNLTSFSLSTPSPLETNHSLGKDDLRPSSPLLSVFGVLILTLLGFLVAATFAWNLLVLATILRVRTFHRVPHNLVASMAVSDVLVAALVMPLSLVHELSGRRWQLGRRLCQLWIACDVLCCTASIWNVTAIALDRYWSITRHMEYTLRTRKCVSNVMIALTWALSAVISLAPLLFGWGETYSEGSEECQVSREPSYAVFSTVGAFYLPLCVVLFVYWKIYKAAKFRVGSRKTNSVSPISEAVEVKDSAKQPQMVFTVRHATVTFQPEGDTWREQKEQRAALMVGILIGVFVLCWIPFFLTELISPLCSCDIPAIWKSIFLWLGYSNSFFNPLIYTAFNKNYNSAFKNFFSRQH
hERG channel, sequence (Q12809 whole entry): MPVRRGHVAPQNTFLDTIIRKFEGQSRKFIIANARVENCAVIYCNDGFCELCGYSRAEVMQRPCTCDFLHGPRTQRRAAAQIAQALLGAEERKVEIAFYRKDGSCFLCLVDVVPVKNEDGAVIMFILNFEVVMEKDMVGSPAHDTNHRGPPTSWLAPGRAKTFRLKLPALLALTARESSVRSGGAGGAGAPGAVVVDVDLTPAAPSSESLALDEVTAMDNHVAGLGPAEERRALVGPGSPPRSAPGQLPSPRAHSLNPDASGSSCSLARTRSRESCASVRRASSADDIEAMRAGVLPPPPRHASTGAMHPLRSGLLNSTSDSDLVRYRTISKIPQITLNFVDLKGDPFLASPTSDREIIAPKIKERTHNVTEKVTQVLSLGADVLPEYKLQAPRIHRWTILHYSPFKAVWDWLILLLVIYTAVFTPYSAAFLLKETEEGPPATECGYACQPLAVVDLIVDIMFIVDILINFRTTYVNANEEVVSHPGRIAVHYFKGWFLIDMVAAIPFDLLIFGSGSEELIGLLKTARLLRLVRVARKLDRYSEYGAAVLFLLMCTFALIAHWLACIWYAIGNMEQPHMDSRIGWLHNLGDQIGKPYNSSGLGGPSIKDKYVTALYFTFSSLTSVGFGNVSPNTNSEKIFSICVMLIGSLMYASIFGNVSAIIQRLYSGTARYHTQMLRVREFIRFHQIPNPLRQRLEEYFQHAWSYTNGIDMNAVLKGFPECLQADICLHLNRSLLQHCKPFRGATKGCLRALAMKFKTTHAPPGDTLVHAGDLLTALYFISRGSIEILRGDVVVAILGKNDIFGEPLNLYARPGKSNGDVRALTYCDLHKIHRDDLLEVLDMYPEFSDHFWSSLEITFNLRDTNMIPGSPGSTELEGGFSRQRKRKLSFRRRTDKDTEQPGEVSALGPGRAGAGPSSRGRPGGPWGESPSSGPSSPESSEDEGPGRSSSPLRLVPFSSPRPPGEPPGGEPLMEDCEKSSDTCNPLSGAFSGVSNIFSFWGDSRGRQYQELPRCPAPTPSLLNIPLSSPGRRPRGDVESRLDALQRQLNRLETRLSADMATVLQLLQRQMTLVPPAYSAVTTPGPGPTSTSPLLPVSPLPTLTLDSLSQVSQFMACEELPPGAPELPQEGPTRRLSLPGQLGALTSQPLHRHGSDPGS

For `Cc1ccc2c(c1)Oc1sc(SC(C)C)cc1C(N1CCN(CC(C)(C)C(=O)O)CC1)=N2` [Example 1, 3-[4-(2-isopropylsulfanyl-8-methyl-thieno[2,3-b][1,5]benzoxazepin-4-yl)piperazin-1-yl]-2,2-dimethyl-propanoic acid], the inhibitory constant (Ki) at Adrenergic alpha2A is over 1610 nM; at Dopamine D3, over 5470 nM; in data set [1] it was 4.84 nM; on 5-HT1B receptors, over 9590 nM; at Dopamine Transporter, over 866 nM; at 5-HT5 it was 6710 nM. Moreover, the inhibition constant Ki at 5-HT7 receptors is over 2060 nM; at Adrenergic alpha2C, over 6430 nM. Besides, the “hERG Channel” value at hERG channel was over 100 µM. Moreover, the concentration for a half-maximal effect (EC50) in data set [2] came to 103 nM.
